According to US20260242418A1, “CYCLIC PEPTIDES WITH ANTIBACTERIAL ACTIVITY AGAINST MULTIDRUG RESISTANT (MDR) PATHOGENS” (priority 2022, published 2026):
≈ marks a conversion by molar mass, not a printed value.

Legend:
[1] = system: Enterococcus faecalis; format: cell-based; conditions: 15 strains
From the text: (§1) The Minimum Inhibitory Concentration (MIC) of PLP-3 peptide (SEQ D NO: 4) against a collection of clinically relevant Gram-positive bacterial strains was obtained via broth microdilution. The tested species Staphylococcus aureus, Enterococcus faecium and Enterococcus faecalis. The followed protocol was based on the Clinical & Laboratory Standards Institute (CLSI) and EUCAST Guidelines.
(§2) In these tests, MIC is the value defined as the lowest concentration of an antimicrobial which inhibits the macroscopic growth of a bacterial strain after 16-20 hours of incubation at 37° C. The results of this assay were obtained by visual identification of bacterial growth at the bottom of each well plate. Since the wells contained decreasing concentrations of the peptide, the final result was indicated as a concentration, MIC, expressed in μg/mL of the PLP-3.
(§3) Bacterial strains were streaked in Columbia Agar plates (Columbia Agar with 5% Sheep Blood 90 mm Stacker plates, Becton Dickinson) and incubated overnight at 37° C. Polypropylene round bottomed 96-well plates were filled with 50 μL/well of Cation Adjusted Mueller-Hinton Broth (CAMHB, 90922, 500 g, Sigma-Aldrich) and 50 μL of PLP-3 (at 4 times higher the chosen initial concentration of the test) were added to the first well of each row of the plate followed by 1:2 serial dilutions up until the 10th column of the plate. The 11th and 12th columns were used for positive and negative growth controls.
(§4) Stain inoculums were standardized by preparing a 1:100 dilution of 0.5 McFarland solutions in CAMHB. Plates were inoculated with 50 μL of the diluted inoculums and covered with an adhesive film before 16-20 hours of incubation at 37° C.
(§5) Two biological and two technical replicates were performed per strain.
(§6) Broth microdilution testing from a panel of clinical strains of each specie provided MIC50 and […] values (Table 7). Strains were either from clinical origin, relevant to current clinical situation, or commercially available strains belonging to the American Type Culture Collection (ATCC), S. aureus 29213. Regarding clinical strains collection, 10 out of the 19 S. aureus strains were resistant to methicillin (MRSA), and 11 out of the 22 E. faecium strains were resistant to Vancomycin (VRE).
(§7) MIC50 value represents the antimicrobial concentration value that inhibits the growth of 50% of the bacterial strain panel. […] value represents the antimicrobial concentration value that inhibits the growth of 90% the bacterial strain collection.

[2] = system: Staphylococcus aureus; format: cell-based; conditions: 19 strains (10/19 MRSA)
From the text: as §1, §2, §3, §4, §5, §6, §7

[3] = system: Enterococcus faecium; format: cell-based; conditions: 22 strains (11/22 VRE)
From the text: as §1, §2, §3, §4, §5, §6, §7

[4] = system: P. aeruginosa ATCC 27853; test: Time-kill curves; format: cell-based, Pseudomonas aeruginosa
Procedure: Time-kill curves (TKC) determine the in vitro antimicrobial activity of a compound, monitoring the bacterial growth over a certain period of time.
This assay was performed for two Acinetobacter baumannii strains (a clinical strain and ATCC 19606 strain) and one Pseudomonas aeruginosa ATCC 27853 strain, monitoring its growth during 24 hours at different PLP-3 (SEQ ID NO: 4) concentrations: MIC, 2×MIC, 4×MIC, 8×MIC. Moreover, in each TKC assay a negative and a positive growth control was stablished.
In different 13MI tubes, a certain concentration of PLP-3 peptide, Mueller-Hinton Broth (MHB, 1214, Condalab) and a fixed inoculum concentration were added. The final inoculum concentration in each tube was […]. Tubes were incubated at 37° C. at 180 rpm during 24 hours. Aliquots of the liquid culture were taken at different times: 0 h, 10 minutes, 30 minutes, 1 h, 2 h, 4 h, 8 h and 24 h. For each taken aliquot, serial dilutions with Phosphate Saline Buffer 1× (PBS 1×) were made and streaked in Luria-Bertani Agar (LB, 1083, Condalab). LB Agar plates were incubated at 37° C. during 18-22 hours. Grown colonies in LB Agar were counted in order to quantify the inoculum in each time period.
Three biological replicates were performed for each strain, and the mean and standard deviation was determined each time.

[5] = system: human erythrocytes; test: in vitro; format: cell-based; conditions: red cells of human
Procedure: (§8) A 50% haematocrit solution (1:1 PBS 1×, P5493, 1 L, Sigma) was obtained from a commercially available human blood sample by performing 3 consecutive washes with PBS 1× and centrifuging at 2600 rpm for 10 minutes between washes. A final 4% erythrocyte solution was prepared with PBS 1× and chilled on ice until used.
(§9) Colistin and SEQ ID NO: 4 (PLP-3) stocks were prepared at 256 μg/mL in MHB and left at 4 C until used.
(§10) 96-well, round bottom plates were filled with 50 μL PBS 1× but for the haemolysis controls, which were left empty. 50 μL of each antimicrobial were added to the first column of each plate and serial dilution was performed. Then 50 μL of 4% erythrocyte solution were added to all wells of the plate and gently resuspended. Positive control consisted in PBS 1× and erythrocytes while haemolysis control was settled at 1% Triton™ X-100 (TX-100, 9002-93-1, 100 mL, Sigma) and erythrocytes.
(§11) Plates were incubated for 4 h at 37° C. and then centrifuged at 1500 rpm 5 min. […] An EPOCH™ spectrophotometer was used to read the plates at 450 nm.
(§12) Haemolysis assays of human erythrocytes were done using 1% TX-100 as a control for total haemolysis and absorbance values of PLP-3 were represented in relation to total haemolysis (TX-100 values).

[6] = in vitro; format: cell-based, human; conditions: human, haemolysis % relative to 1% TX-100 at 64 ug/mL PLP-3
Procedure: as §8, §9, §10, §11, §12

## CC(C)C[C@@H]1NC(=O)[C@H](CCCNC(=N)N)NC(=O)[C@H](CCCNC(=N)N)NC(=O)[C@H](CCCNC(=N)N)NC(=O)[C@H]2CCCN2C(=O)[C@H](CCCNC(=N)N)NC(=O)[C@H](CCCNC(=N)N)NC(=O)[C@H](C(C)C)NC(=O)[C@@H]2CSSC[C@H](NC1=O)C(=O)N[C@@H](Cc1ccccc1)C(=O)N[C@@H](C(C)C)C(=O)N[C@@H](CCCNC(=N)N)C(=O)N1CCC[C@@H]1C(=O)N[C@@H](CCCCN)C(=O)N[C@@H](Cc1ccccc1)C(=O)N[C@@H](C(C)C)C(=O)N[C@@H](C(C)C)C(=O)N2 [PLP-3, cyclo[RRRLCFVRPKFVVCVRRP]]
[1]
  MIC50: 4 µg/mL (≈ 1.76 µM)
  MIC90: 4 µg/mL (≈ 1.76 µM)
[2]
  MIC50: 4 µg/mL (≈ 1.76 µM)
  MIC90: 8 µg/mL (≈ 3.53 µM)
[3]
  MIC50: 2 µg/mL (≈ 0.882 µM)
  MIC90: 2 µg/mL (≈ 0.882 µM)
[4]; 2xMIC (16 μg/mL), 0.00 h
  log(CFU/mL) Mean: 5.52 log(CFU/mL)
[4]; 2xMIC (16 μg/mL), 0.17 h
  log(CFU/mL) Mean: 4.48 log(CFU/mL)
[4]; 2xMIC (16 μg/mL), 0.50 h
  log(CFU/mL) Mean: 3.75 log(CFU/mL)
[4]; 2xMIC (16 μg/mL), 1.00 h
  log(CFU/mL) Mean: 2.97 log(CFU/mL)
[4]; 2xMIC (16 μg/mL), 2.00 h
  log(CFU/mL) Mean: 0.88 log(CFU/mL)
[4]; 2xMIC (16 μg/mL), 4.00 h
  log(CFU/mL) Mean: 0.00 log(CFU/mL)
[4]; 2xMIC (16 μg/mL), 8.00 h
  log(CFU/mL) Mean: 0.00 log(CFU/mL)
[4]; 2xMIC (16 μg/mL), 24.00 h
  log(CFU/mL) Mean: 0.00 log(CFU/mL)
[4]; 4xMIC (32 μg/mL), 0.00 h
  log(CFU/mL) Mean: 5.52 log(CFU/mL)
[4]; 4xMIC (32 μg/mL), 0.17 h
  log(CFU/mL) Mean: 4.32 log(CFU/mL)
[4]; 4xMIC (32 μg/mL), 0.50 h
  log(CFU/mL) Mean: 3.46 log(CFU/mL)
[4]; 4xMIC (32 μg/mL), 1.00 h
  log(CFU/mL) Mean: 1.23 log(CFU/mL)
[4]; 4xMIC (32 μg/mL), 2.00 h
  log(CFU/mL) Mean: 0.57 log(CFU/mL)
[4]; 4xMIC (32 μg/mL), 4.00 h
  log(CFU/mL) Mean: 0.00 log(CFU/mL)
[4]; 4xMIC (32 μg/mL), 8.00 h
  log(CFU/mL) Mean: 0.00 log(CFU/mL)
[4]; 4xMIC (32 μg/mL), 24.00 h
  log(CFU/mL) Mean: 0.00 log(CFU/mL)
[4]; 8xMIC (64 μg/mL), 0.00 h
  log(CFU/mL) Mean: 5.52 log(CFU/mL)
[4]; 8xMIC (64 μg/mL), 0.17 h
  log(CFU/mL) Mean: 4.14 log(CFU/mL)
[4]; 8xMIC (64 μg/mL), 0.50 h
  log(CFU/mL) Mean: 1.43 log(CFU/mL)
[4]; 8xMIC (64 μg/mL), 1.00 h
  log(CFU/mL) Mean: 0.00 log(CFU/mL)
[4]; 8xMIC (64 μg/mL), 2.00 h
  log(CFU/mL) Mean: 0.00 log(CFU/mL)
[4]; 8xMIC (64 μg/mL), 4.00 h
  log(CFU/mL) Mean: 0.00 log(CFU/mL)
[4]; 8xMIC (64 μg/mL), 8.00 h
  log(CFU/mL) Mean: 0.00 log(CFU/mL)
[4]; 8xMIC (64 μg/mL), 24.00 h
  log(CFU/mL) Mean: 0.00 log(CFU/mL)
[4]; MIC (8 μg/mL), 0.00 h
  log(CFU/mL) Mean: 5.52 log(CFU/mL)
[4]; MIC (8 μg/mL), 0.17 h
  log(CFU/mL) Mean: 4.81 log(CFU/mL)
[4]; MIC (8 μg/mL), 0.50 h
  log(CFU/mL) Mean: 4.34 log(CFU/mL)
[4]; MIC (8 μg/mL), 1.00 h
  log(CFU/mL) Mean: 3.67 log(CFU/mL)
[4]; MIC (8 μg/mL), 2.00 h
  log(CFU/mL) Mean: 3.15 log(CFU/mL)
[4]; MIC (8 μg/mL), 4.00 h
  log(CFU/mL) Mean: 2.63 log(CFU/mL)
[4]; MIC (8 μg/mL), 8.00 h
  log(CFU/mL) Mean: 2.10 log(CFU/mL)
[4]; MIC (8 μg/mL), 24.00 h
  log(CFU/mL) Mean: 5.08 log(CFU/mL)
[4]; time-kill curves over 24 hours, MIC to 8xMIC
  bactericidal or bacteriostatic activity: bactericidal effect
[5]
  IC50 from the haemolysis curve: 48.53 µg/mL (≈ 21.4 µM)
[6]
  hemolysis at 4 h, 64 ug/mL: 62.6%
